The record followed here is article PMC5507300, “Antibacterial small molecules targeting the conserved TOPRIM domain of DNA gyrase” (PLoS ONE, 2017).

Structures are written as SMILES. Converted amounts (≈) assume the structure as drawn. Where only a bound is given, the exact number is not on record here.

What all share (format): cell-based
The subject of assay [1] is E. coli HS151 (qnrVC). Briefly: Broth microdilution MIC, E. coli HS151 (qnrVC). The note with it: Escherichia coli. The text has this:
(§1) E. coli HS151 (ΔtolC) has been described previously. Gyrase inhibitor-resistant isolates (GYR101-108) were derived by selection for spontaneous resistance to MRL-770 or MRL-423 (Fig 1) in E. coli HS151 as described below. E. coli BW25113 and the Keio gene deletion collection based on BW25113 [25] were obtained from Thermo Fisher Scientific (Waltham, MA) and described in [26]. The plasmid-borne FQ resistance determinant, qnrVC3 [27], was kindly provided by D. Hooper (Massachusetts General Hospital). MB9796 (A. baumannii) is a derivative of MB9797 (ATCC19606) lacking lipopolysaccharide. The efflux-defective P. aeruginosa strain MB5890 (CB398) is a derivative of MB5919 (PAO1). MB2884 (E. coli) and CL15245 (K. pneumoniae) are clinical isolates from the Merck & Co., Inc., Kenilworth, NJ, USA, strain collection. S. aureus COL is a methicillin-resistant clinical isolate.
(§2) Compound doubling dilutions were prepared in 100% DMSO (Sigma Aldrich) and 2 μL of each dilution was transferred to a 96-well plate with lid (Thermo Scientific). Inoculum for all MIC testing was prepared using the BBL Prompt Inoculation System (Becton Dickinson, Franklin Lakes, NJ USA) as described by the manufacturer to produce a suspension of cells at approximately 1.5 x 10^8 colony forming units (CFU)/mL [34–36] and a further dilution (1:1000) was made into cation adjusted Mueller-Hinton broth (CAMH broth, Becton-Dickinson). One hundred μL of this inoculum were then transferred to each well of the 96-well plate containing diluted compound (above). Plates were covered and incubated overnight (18 hrs.) at 37°C.
Background: In broth dilution the organism is exposed to a series of concentrations in liquid medium.

Assay [2] concerns DNA synthesis in E. coli JL553. The assay is described as follows: Macromolecule synthesis labeling. The conditions noted are these: E. coli JL553, 25 min exposure, labeled precursor incorporation. The procedure:
Macromolecule synthesis profiling was conducted as described by Montgomery, et al. with minor modifications. E. coli strain JL553 (tolC, lysE) was used to measure inhibition of DNA, RNA, protein, peptidoglycan and phospholipid biosynthesis while E. coli MB5500 (lpxC [envA1], galE; Merck & Co., Inc., Kenilworth, NJ, USA, strain collection) was used to measure inhibition of lipopolysaccharide biosynthesis. Radioisotope labeled precursors were used at the following final concentrations [2-^14C]-thymidine (2.5 μCi/mL), [^14C(U)]-uridine (0.5 μCi/mL), L-[4, 5-^3H]-leucine (5 μCi/mL), [2-^3H]-glycerol (2 μCi/mL), [^3H]-diaminopimelic acid (3 μCi/mL), D-[1-^14C]-galactose (0.5 μCi/mL). Compound concentrations (3-fold serial dilutions) were chosen to place the minimum inhibitory concentration (see below) near the center of the dose range. Labeled cultures were incubated with compound for 25 min; stopped with trichloroacetic acid, filtered and incorporation was measured as described. Percent inhibition of incorporation was calculated relative to an untreated control culture for each labeled precursor and plotted with GraphPad Prism.

Assay [3] relates to S. aureus (MRSA) COL. Briefly: Broth microdilution MIC, S. aureus COL. The conditions noted are these: Staphylococcus aureus, MRSA.
From the text: as §1, §2

Assay [4] deals with E. coli CIP101 GyrA D87N. Briefly: microbe, parasite or virus in culture. The conditions noted are these: Escherichia coli. As to the method: as §2
Assay [5] has as its system E. coli GYR108 GyrB L470I/V467L. Briefly: microbe, parasite or virus in culture. The conditions noted are these: Escherichia coli.
From the text: (§3) E. coli HS151 (ΔtolC) has been described previously. […] E. coli BW25113 and the Keio gene deletion collection based on BW25113 [25] were obtained from Thermo Fisher Scientific (Waltham, MA) and described in [26]. The plasmid-borne FQ resistance determinant, qnrVC3 [27], was kindly provided by D. Hooper (Massachusetts General Hospital). […] MB2884 (E. coli) and CL15245 (K. pneumoniae) are clinical isolates from the Merck & Co., Inc., Kenilworth, NJ, USA, strain collection. S. aureus COL is a methicillin-resistant clinical isolate.
as §2
After the agar solidified, 5 μL of a saturated bacterial culture, grown in CAMH broth, were dispensed on the agar surface and allowed to dry at room temperature. […] After the surface dried at room temperature the plate was incubated at 37°C overnight. […] Genomic DNA from the parent strain (E. coli HS151) and purified (restreaked) resistant isolates was obtained with a GeneJET genomic DNA purification kit according to the manufacturer’s instructions (Fisher Scientific). Assembled whole genome mutant sequences were then compared to the parent strain and polymorphisms were identified as described.

For assay [6], the system named is E. coli BW25113 ΔtolC/ΔyacG. The assay is described as follows: Broth microdilution MIC, E. coli BW25113 ΔtolC/ΔyacG. The conditions noted are these: Escherichia coli, BW25113. The procedure: as §2
The yacG deletion allele from the Keio collection was amplified by PCR (primers: […] and […]) and moved to BW25113 ΔtolC as described below. The E. coli strain BW25113 ΔtolC containing pKD46 [25] was used to inoculate SOB (Invitrogen)/0.2% w/v arabinose (Sigma Aldrich)/ampicillin (100 μg/mL) and grown overnight at 30°C. The overnight culture was then diluted 1/40 into 20 mL fresh SOB/0.2% w/v arabinose/ampicillin (100 μg/mL) and grown at 30°C while shaking for ~3 hrs until OD600 = 0.5. Cells were pelleted by centrifugation at 4000 rpm for 10 min, washed with 40 mL ice cold sterile, distilled H2O, then 3 x 1 mL ice cold 10% glycerol followed by centrifugation at 5000 g for 3 minutes. The pellet was resuspended in 100 μL of 10% glycerol (1/200 of starting culture). For transformation, 5 μL of gel purified PCR product was added to 50 μL cells, mixed, and immediately electroporated in a 0.2 cm gap cuvette at 2.5kV, 25 μF, 200 Ω (BioRad, Hercules, CA USA). Electroporated cells were recovered in 1 mL SOC (Invitrogen)/0.2% arabinose at 37°C for 2 hours with shaking. Cells in amounts of 50 and 950 μL were then plated on LB agar supplemented with kanamycin (25 μg/mL) and incubated overnight at 37°C. Correct gene replacements were verified by PCR.

The subject of assay [7] is E. coli BW25113 ΔtolC. The assay is described as follows: Broth microdilution MIC, E. coli BW25113 ΔtolC. The note with it: Escherichia coli.
From the text: as §1, §2
The yacG deletion allele from the Keio collection was amplified by PCR (primers: […] and […]) and moved to BW25113 ΔtolC as described below. The E. coli strain BW25113 ΔtolC containing pKD46 [25] was used to inoculate SOB (Invitrogen)/0.2% w/v arabinose (Sigma Aldrich)/ampicillin (100 μg/mL) and grown overnight at 30°C. The overnight culture was then diluted 1/40 into 20 mL fresh SOB/0.2% w/v arabinose/ampicillin (100 μg/mL) and grown at 30°C while shaking for ~3 hrs until OD600 = 0.5. […]

In assay [8] the test system is E. coli GYR103 GyrB L446Q. Briefly: microbe, parasite or virus in culture. The conditions noted are these: Escherichia coli.
From the text: as §1, §2
After the agar solidified, 5 μL of a saturated bacterial culture, grown in CAMH broth, were dispensed on the agar surface and allowed to dry at room temperature. […] To select for resistance, a 100 mm petri dish was filled with 25 mL CAMH agar containing 8 μg/mL MRL-770 or 0.5 μg/mL MRL-423 (Fig 1). The cells in 1 mL of an overnight culture of E. coli HS151 (~10^9 CFU/mL) were concentrated by centrifugation and spread onto the surface of an MRL-770 or MRL-423 containing plate. After the surface dried at room temperature the plate was incubated at 37°C overnight. Any colonies that arose were counted and an approximate frequency of resistance was calculated after confirming resistance by restreaking on media containg compound as well as measuring MICs (see Results). Genomic DNA from the parent strain (E. coli HS151) and purified (restreaked) resistant isolates was obtained with a GeneJET genomic DNA purification kit according to the manufacturer’s instructions (Fisher Scientific). Assembled whole genome mutant sequences were then compared to the parent strain and polymorphisms were identified as described.

Assay [9] relates to A. baumanii MB9797 (ATCC19606). The assay is described as follows: Broth microdilution MIC, A. baumannii MB9797. The note with it: Acinetobacter baumannii.
From the text: as §1, §2

Assay [10] deals with A. baumannii ΔlpxC MB9796. Briefly: Broth microdilution MIC, A. baumannii MB9796. The note with it: Acinetobacter baumannii.
From the text: as §1, §2

In assay [11] the test system is E. coli HS151 (ΔtolC). The assay is described as follows: microbe, parasite or virus in culture. The note with it: Escherichia coli, Table 3; HS151.
From the text: as §3, §2

For assay [12], the system named is E. coli HS151. The assay is described as follows: In vitro time-dependent bactericidal study. The note with it: E. coli HS151; at the 4 hour time point. The procedure:
A culture of E. coli HS151 in CAMH broth was grown overnight (18 hrs.) at 37°C, diluted 1:10,000 in 200 mL of fresh CAMH broth and further incubated for 1 hour at 37°C with shaking. A time-zero sample was then removed and 20 mL portions of the remaining culture were transferred into 125 mL vented flasks to which were added MRL-1082 or control antibiotics, at the indicated concentrations. These flasks were then incubated at 37°C with shaking (70 rpm). Samples were withdrawn at the indicated times, plated on blood agar (trypticase soy agar with 5% sheep blood, Becton-Dickinson) and, following overnight growth at 37°C, colonies were counted to determine CFU/mL.

As for `O=C(O)c1cn(C2CC2)c2cc(N3CCNCC3)c(F)cc2c1=O` [ciprofloxacin], the MIC in assay [1] is 30 ng/mL (≈ 0.0905 µM); in assay [3], over 125 ng/mL; in assay [4], 31.2 ng/mL (≈ 0.0943 µM); in assay [5], 3.9 ng/mL (≈ 0.0118 µM); in assay [6], 4 ng/mL (≈ 0.0121 µM); in assay [7] it was 4 ng/mL (≈ 0.0121 µM). In addition, the MIC in assay [8] is 3.9 ng/mL (≈ 0.0118 µM); in [9] it was over 125 ng/mL; in [10] it was 62.5 ng/mL (≈ 0.189 µM); in assay [11], 4 ng/mL (≈ 0.0121 µM). Besides, the “inhibition of macromolecule synthesis” value in assay [2] is recorded as “Dose-dependent, selective inhibition of DNA synthesis”. The “culture viability, below lower limit of quantitation” value in [12] is under 20 CFU/mL.
